This is an account of results in ChEMBL document CHEMBL1125524, “Adenosine A1 antagonists. 2. Structure-activity relationships on diuretic activities and protective effects against acute renal failure” (J Med Chem, 1992).

Test [1] relates to Rattus norvegicus. Briefly: Serum creatinine concentration measured after intraperitoneal administration of 10 mg/kg of compound to rats(vehicle 3.38+/-0.29). In kind it is functional.
For test [2], the system named is Rattus norvegicus. Briefly: Effect on urinary excretion potassium and sodium after oral administration of 25 mg/kg to rats(potassium and sodium excretion in control rat is 0.209+/-0.007). In kind it is functional, Urine.
Test [3] has as its system Rattus norvegicus. Briefly: Ratio of urinary excretion value (urinary volume) in treated rats to that in control rats, at a peroral dose of 25 mg/Kg. The class given is functional, Urine.
Test [4] relates to Rattus norvegicus. Nature of the test: Ratio of sodium ion/potassium ion concentration in treated rats to that in control rats, at a peroral dose of 25 mg/Kg. In kind it is functional.
In test [5] the test system is Rattus norvegicus. Nature of the test: Ratio of urinary excretion value (Na+ concentration) in treated rats to that in control rats, at a peroral dose of 25 mg/Kg. In kind it is functional, Urine.
Test [6] has as its system Rattus norvegicus. Briefly: Percent inhibition of serum creatinine by the compound given as ratio of Cr value in treated to vehicle treated ones after intraperitoneal administration of 10 mg/kg of compound to rats(vehicle 3.38+/-0.29). The following applies: ip. In kind it is functional.
Test [7] has as its system Rattus norvegicus. Nature of the test: Oral diuretic activity was measured after oral administration of 25 mg/kg to rats(control volume is 1.02+/-0.02). The class given is functional, Urine.
Test [8] relates to Rattus norvegicus. Briefly: Urea nitrogen concentration measured after intraperitoneal administration of 10 mg/kg of compound to rats(vehicle 114+/-8.7). In kind it is functional.
Test [9] relates to Rattus norvegicus. Briefly: Percent inhibition of Urea nitrogen by the compound given as ratio of UN value in treated to vehicle treated ones after intraperitoneal administration of 10 mg/kg of compound to rats(vehicle 114+/-8.7). The following applies: ip. In kind it is functional.
In test [10] the target is T1, Adenosine receptor A1 (Cavia porcellus, UniProt P47745).
T1 sequence (P47745 whole entry): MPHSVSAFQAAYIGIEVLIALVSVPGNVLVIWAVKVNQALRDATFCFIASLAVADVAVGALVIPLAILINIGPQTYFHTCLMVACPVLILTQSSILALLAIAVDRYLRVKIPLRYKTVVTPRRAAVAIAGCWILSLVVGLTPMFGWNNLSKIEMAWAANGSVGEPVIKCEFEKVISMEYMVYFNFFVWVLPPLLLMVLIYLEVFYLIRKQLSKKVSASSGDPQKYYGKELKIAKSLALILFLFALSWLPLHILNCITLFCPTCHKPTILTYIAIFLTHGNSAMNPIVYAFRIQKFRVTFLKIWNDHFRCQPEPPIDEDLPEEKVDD
Description: Binding affinity against adenosine A1 receptor in guinea pig forebrain membranes using N6-[3H]cyclohexyladenosine as radioligand

Test [11] addresses T2, Adenosine A2 receptor (Rattus norvegicus, UniProt P29276+P30543).
Description: Binding affinity towards adenosine A2 receptor in rat striatal membranes using N-[3H]-ethyladenosin-5''-uronamide as radioligand
The target in test [12] is T2, Adenosine A2 receptor. This is another data set of the same source.
For test [13], the system named is Rattus norvegicus. Nature of the test: Serum creatinine concentration measured after intraperitoneal administration of 1 mg/kg of compound to rats(vehicle 5.07+/-0.33). In kind it is functional.
Test [14] concerns Rattus norvegicus. Nature of the test: Serum creatinine concentration measured after intraperitoneal administration of 10 mg/kg of compound to rats(vehicle 5.53+/-0.34). The class given is functional.
Test [15] relates to Rattus norvegicus. Briefly: Urea nitrogen concentration measured after intraperitoneal administration of 1 mg/kg of compound to rats(vehicle 195.8+/-14.4). The class given is functional.
The test system of test [16] is Rattus norvegicus. Nature of the test: Percent inhibition of serum creatinine by the compound given as ratio of Cr value in treated to vehicle treated ones after intraperitoneal administration of 10 mg/kg of compound to rats(vehicle 5.53+/-0.34). The following applies: ip. In kind it is functional.
The test system of test [17] is Rattus norvegicus. Briefly: Effect on urinary excretion potassium and sodium after oral administration of 25 mg/kg to rats(potassium and sodium excretion in control rat is 0.265+/-0.099). In kind it is functional, Urine.
In test [18] the test system is Rattus norvegicus. Nature of the test: Ratio of urinary excretion value (Na+ concentration) in treated rats to that in control rats, at a peroral dose of 6.25 mg/Kg. In kind it is functional, Urine.
Test [19] deals with Rattus norvegicus. Nature of the test: Oral diuretic activity was measured after oral administration of 25 mg/kg to rats(control volume is 1.64+/-0.7). In kind it is functional, Urine.
Test [20] concerns Rattus norvegicus. Briefly: Urea nitrogen concentration measured after intraperitoneal administration of 10 mg/kg of compound to rats(vehicle 177.4+/-5.3). In kind it is functional.
Test [21] concerns Rattus norvegicus. Briefly: Percent inhibition of Urea nitrogen by the compound given as ratio of UN value in treated to vehicle treated ones after intraperitoneal administration of 10 mg/kg of compound to rats(vehicle 177.4+/-5.3). In kind it is functional. Particulars: ip.
In test [22] the test system is Rattus norvegicus. Nature of the test: Percent inhibition of Urea nitrogen by the compound given as ratio of UN value in treated to vehicle treated ones after intraperitoneal administration of 1 mg/kg of compound to rats(vehicle 195.8+/-14.4). In kind it is functional. Particulars: Rattus norvegicus, ip.
In test [23] the test system is Rattus norvegicus. Briefly: Ratio of urinary excretion value (urinary volume) in treated rats to that in control rats, at a peroral dose of 6.25 mg/Kg. In kind it is functional, Urine.
The species named for test [24] is Rattus norvegicus. Nature of the test: animal or person. Particulars: ip, read-out: Inhibition, dose 1 mg/kg, route intraperitoneal.

Bounds are passed on as bounds.

The Ki is the dissociation constant of the complex between target and ligand, obtained from inhibition or displacement. A higher Ki goes with lower affinity.

For `Nc1nc2ccc(Cl)cc2n2c(-c3ccccc3)nnc12`, in test [1], the Cr came to 4.58 mg/dL. In addition, the Na in test [2] is reported as 0.186 m equiv 6hr-1 100g-1. Moreover, the T/C in test [3] came out at 0.85; in [5] it was 0.89. Further, the “Na+/K+” value in [4] is 1.05. Moreover, the inhibition in vivo at 10 mg/kg in test [6] is -36%; in [9] it was -21%. For the same compound, the Urine volume in [7] turned out to be 0.87 ml 6hr-1 100g-1. In addition, the UN in [8] amounted to 137.8 mg/dL. Besides, the Ki in test [10] turned out to be 6.9 µM; in [11] it was 0.021 µM; in [12], 0.0051 µM.

`CCCn1c(=O)[nH]c(=O)c2[nH]c(C34CC5CC(CC3C5)C4)nc21`: the results for the Cr in test [13] and in test [14] were 4.33 mg/dL and 2.83 mg/dL, respectively. Also, the UN in [15] was 164.9 mg/dL; in test [20], 107.4 mg/dL. For the same compound, the inhibition in vivo at 10 mg/kg was found to be 49% in [16] and 39% in test [21]. This compound had a Na in [17] of 0.4 m equiv 6hr-1 100g-1. Besides, the T/C is 1.43 in test [3], 1.51 in [5], 1.49 in test [18] and 1.26 in test [23]. The “Na+/K+” value in [4] came out at 1.29. Besides, the Urine volume in test [19] worked out at 2.34 ml 6hr-1 100g-1. Further, the inhibition in vivo at 1 mg/kg in test [22] worked out at 16%; in test [24], 15%. In [12], this compound returned a Ki greater than 100 µM.
